Measured values taken from PMC7311426, “An amphipathic peptide with antibiotic activity against multidrug-resistant Gram-negative bacteria” (Nature Communications, 2020).
Read-outs that look alike come from different tables or passages of the source. Residues, ends and D or L forms follow the SMILES beside them.

Experiments:
in vivo [1] = settings: for level at 4 h / level at 8 h / level at 0.5 h / level at 1 h / level at 3 h / level at 12 h: Cross species PK, concentration (Fig 6 source data)
Experimental: The studies were performed at Fidelta Ltd, Croatia (mice), under review by the institutional ethics committee (CARE-Zg), and Covance Laboratories UK and Muenster Germany (cynomolgus monkey and minipig) in accordance with the requirements of the Animals (Scientific Procedures) Act 1989 and a maintained local ethical review. All studies were contracted by Adenium Biotech ApS. Mice were housed in polysulfone cages with an acclimatization period of 7 days prior to experiments with air temperature maintained at 22 °C with 55% humidity and light–dark cycles of 12 h light. Cynomolgus monkeys of age range 4–7 years were selected, tested for health, acclimatized for 2 weeks, and housed in single-animal climate controlled stainless-steel cages with a minimum of 8 air changes per hour with air temperature at 19–25 °C and relative humidity 40–70%, and light–dark cycles of 12 h light. Minipigs of age range 4–6 months were selected, tested for health, acclimatized for 2 weeks, and housed in single-animal pens with 15–20 air changes per hour with air temperature at 22–26 °C with light–dark cycles of 12 h light.
Mouse, monkey, and minipig i.v. 2-h infusion: AA139 formulated in Ringer’s acetate was administered intravenously to CD1 mice, cynomolgus monkeys (Macaca fascicularis) and Göttingen A/S minipigs (Ellegaard Göttingen, Denmark) by continuous infusion over 2 h (minipig under anesthesia). Individual dose volumes were based on individual body weight. Blood samples were collected at 0.5, 1, 2, 3, 4, 8, 10, and 12 h after the start of the infusion (n = 6 mice, male and female combined; n = 2 monkeys, one male and one female; n = 2 minipigs, one male and one female). Bioanalytical analysis was performed by SPE followed by LC–MS/MS. The method was validated for an AA139 concentration range of 43.4–21,700 ng mL^−1. Pharmacokinetic parameters were calculated by standard non-compartmental analysis (NCA) using Phoenix WinNonlin version 6.2. The studies were conducted in compliance with Good Laboratory Practice (GLP) regulations.

E. coli = E. coli MDR/ESBL; after 20 passages + 3 drug-free passages
[2] = inhalation, mice; for Tmax: relative to end of inhalation
in vivo [3] = settings: mouse, ip, Cross species PK, concentration (Fig 6 source data)
7-day iv MTD toxicity = settings: minipig
[4] = 7-day DRF inhalation toxicity; settings: for AUC(0-t) / Cmax: Mouse inhalation, TK dose 20 mg/kg
[5] = Dose range finding & MTD iv toxicity
[6] = Göttingen, minipig, in vivo, iv, minipig 2h i.v. infusion, replicate 1
[7] = Göttingen, minipig, in vivo, iv, minipig 2h i.v. infusion, replicate 2
[8] = both, Göttingen, minipig, in vivo, iv, 10 mg kg-1
[9] = both, cynomolgus monkey, in vivo, iv, 10 mg kg-1
[10] = cynomolgus monkey, in vivo, iv, monkey 2h i.v. infusion, replicate 1
[11] = cynomolgus monkey, in vivo, iv, monkey 2h i.v. infusion, replicate 2
[12] = cynomolgus monkey, in vivo, iv, monkey 2h i.v. infusion, replicate 3
[13] = cynomolgus monkey, in vivo, iv, monkey 2h i.v. infusion, replicate 4
[14] = cynomolgus monkey, in vivo, iv, 20 mg/kg

CC(C)[C@@H]1NC(=O)[C@H](Cc2ccc(O)cc2)NC(=O)[C@H](Cc2c[nH]c3ccccc23)NC(=O)[C@@H](NC(=O)[C@H](Cc2ccccc2)NC(=O)CN)CSSC[C@@H](C(=O)N[C@@H](CC(N)=O)C(=O)O)NC(=O)[C@H](CCCNC(=N)N)NC(=O)[C@H](CCCNC(=N)N)NC(=O)[C@H](Cc2ccc(O)cc2)NC(=O)[C@@H]2CSSC[C@H](NC1=O)C(=O)N[C@@H](C)C(=O)N[C@@H](CCCNC(=N)N)C(=O)N[C@@H](CCCNC(=N)N)C(=O)N[C@@H](CC(N)=O)C(=O)NCC(=O)N[C@@H](C)C(=O)N[C@@H](CCCNC(=N)N)C(=O)N[C@@H](C(C)C)C(=O)N2 [AA139] (HELM PEPTIDE1{G.F.C.W.Y.V.C.A.R.R.N.G.A.R.V.C.Y.R.R.C.N}$PEPTIDE1,PEPTIDE1,3:R3-20:R3|PEPTIDE1,PEPTIDE1,7:R3-16:R3$$$V2.0)
level at 4 h (in vivo [1]; [6]): 2850 ng/mL
level at 4 h (in vivo [1]; [7]): 3110 ng/mL
level at 8 h (in vivo [1]; [6]): 1510 ng/mL
level at 8 h (in vivo [1]; [7]): 1240 ng/mL
Vd (in vivo [1]; [8]): 1.2 L/kg
half-life (in vivo [1]; [8]): 3.1 h
level at 0.5 h (in vivo [1]; both, Göttingen, minipig, in vivo, iv, minipig 2h i.v. infusion, time 0.5 h, replicate 1): 4830 ng/mL
level at 1 h (in vivo [1]; both, Göttingen, minipig, in vivo, iv, minipig 2h i.v. infusion, time 1 h, replicate 2): 6780 ng/mL
level at 3 h (in vivo [1]; both, Göttingen, minipig, in vivo, iv, minipig 2h i.v. infusion, replicate 1): 4100 ng/mL
level at 3 h (in vivo [1]; both, Göttingen, minipig, in vivo, iv, minipig 2h i.v. infusion, replicate 2): 5080 ng/mL
AUC(0-inf) (in vivo [1]; [9]): 40800 ng·h/mL
Vd (in vivo [1]; [9]): 0.87 L/kg
half-life (in vivo [1]; [9]): 2.4 h
level at 0.5 h (in vivo [1]; both, cynomolgus monkey, in vivo, iv, monkey 2h i.v. infusion, time 0.5 h, replicate 2): 6540 ng/mL
level at 0.5 h (in vivo [1]; both, cynomolgus monkey, in vivo, iv, monkey 2h i.v. infusion, time 0.5 h, replicate 3): 7630 ng/mL
level at 0.5 h (in vivo [1]; both, cynomolgus monkey, in vivo, iv, monkey 2h i.v. infusion, time 0.5 h, replicate 4): 13500 ng/mL
level at 1 h (in vivo [1]; both, cynomolgus monkey, in vivo, iv, monkey 2h i.v. infusion, time 1 h, replicate 1): 9000 ng/mL
level at 1 h (in vivo [1]; both, cynomolgus monkey, in vivo, iv, monkey 2h i.v. infusion, time 1 h, replicate 2): 9340 ng/mL
level at 1 h (in vivo [1]; both, cynomolgus monkey, in vivo, iv, monkey 2h i.v. infusion, time 1 h, replicate 3): 8480 ng/mL
level at 3 h (in vivo [1]; both, cynomolgus monkey, in vivo, iv, monkey 2h i.v. infusion, replicate 1): 5390 ng/mL
level at 3 h (in vivo [1]; both, cynomolgus monkey, in vivo, iv, monkey 2h i.v. infusion, replicate 2): 5440 ng/mL
level at 3 h (in vivo [1]; both, cynomolgus monkey, in vivo, iv, monkey 2h i.v. infusion, replicate 3): 4440 ng/mL
level at 3 h (in vivo [1]; both, cynomolgus monkey, in vivo, iv, monkey 2h i.v. infusion, replicate 4): 6120 ng/mL
level at 4 h (in vivo [1]; [10]): 3590 ng/mL
level at 4 h (in vivo [1]; [11]): 3930 ng/mL
level at 4 h (in vivo [1]; [12]): 2240 ng/mL
level at 4 h (in vivo [1]; [13]): 2830 ng/mL
level at 8 h (in vivo [1]; [10]): 1270 ng/mL
level at 8 h (in vivo [1]; [11]): 1290 ng/mL
level at 8 h (in vivo [1]; [12]): 2720 ng/mL
level at 8 h (in vivo [1]; [13]): 2460 ng/mL
level at 12 h (in vivo [1]; [12]): 860 ng/mL
level at 12 h (in vivo [1]; [13]): 802 ng/mL
Cross species PK, concentration (Fig 6 source data) (in vivo [1]; minipig 2h i.v. infusion, time 0.5 h, replicate 2): 6298
Cross species PK, concentration (Fig 6 source data) (in vivo [1]; minipig 2h i.v. infusion, time 1 h, replicate 1): 4846
Cross species PK, concentration (Fig 6 source data) (in vivo [1]; minipig 2h i.v. infusion, time 2 h, replicate 1): 7751
Cross species PK, concentration (Fig 6 source data) (in vivo [1]; minipig 2h i.v. infusion, time 2 h, replicate 2): 9612
Cross species PK, concentration (Fig 6 source data) (in vivo [1]; monkey 2h i.v. infusion, time 0.5 h, replicate 1): 6780
Cross species PK, concentration (Fig 6 source data) (in vivo [1]; monkey 2h i.v. infusion, time 1 h, replicate 4): 15900
Cross species PK, concentration (Fig 6 source data) (in vivo [1]; monkey 2h i.v. infusion, time 2 h, replicate 1): 8610
Cross species PK, concentration (Fig 6 source data) (in vivo [1]; monkey 2h i.v. infusion, time 2 h, replicate 2): 11100
Cross species PK, concentration (Fig 6 source data) (in vivo [1]; monkey 2h i.v. infusion, time 2 h, replicate 3): 21300
Cross species PK, concentration (Fig 6 source data) (in vivo [1]; monkey 2h i.v. infusion, time 2 h, replicate 4): 6780
Final MIC (E. coli): 1 µg/mL
AUC(0-t) ([2]; ELF, Day 1, 5 mg kg-1/day): 27,250 ng*h mL-1
Cmax ([2]; ELF, Day 1, 5 mg kg-1/day): 14,750 ng mL-1
Tmax ([2]; ELF, Day 1, 5 mg kg-1/day): 0.5 h
Cmax ([2]; ELF, Day 1, 20 mg kg-1/day): 8,245 ng mL-1
Tmax ([2]; ELF, Day 1, 20 mg kg-1/day): 1.3 h
AUC(0-t) ([2]; ELF, Day 1, 40 mg kg-1/day): 63,300 ng*h mL-1
Cmax ([2]; ELF, Day 1, 40 mg kg-1/day): 36,300 ng mL-1
Tmax ([2]; ELF, Day 1, 40 mg kg-1/day): 0 h
AUC(0-t) ([2]; ELF, Day 7, 5 mg kg-1/day): 58,650 ng*h mL-1
Cmax ([2]; ELF, Day 7, 5 mg kg-1/day): 21,100 ng mL-1
Tmax ([2]; ELF, Day 7, 5 mg kg-1/day): 0.3 h
Cmax ([2]; ELF, Day 7, 20 mg kg-1/day): 42,350 ng mL-1
Tmax ([2]; ELF, Day 7, 20 mg kg-1/day): 0 h
AUC(0-t) ([2]; Lung (ng/g), Day 1, 5 mg kg-1/day): 8,585 ng*h mL-1
AUC(0-t) ([2]; Lung (ng/g), Day 1, 20 mg kg-1/day): 14,411 ng*h mL-1
AUC(0-t) ([2]; Lung (ng/g), Day 1, 40 mg kg-1/day): 7,002 ng*h mL-1
AUC(0-t) ([2]; Lung (ng/g), Day 7, 5 mg kg-1/day): 11,802 ng*h mL-1
AUC(0-t) ([2]; Lung (ng/g), Day 7, 20 mg kg-1/day): 66,791 ng*h mL-1
Cmax ([2]; Lung, Day 1, 5 mg kg-1/day): 3,935 ng/g
Tmax ([2]; Lung, Day 1, 5 mg kg-1/day): 0 h
Cmax ([2]; Lung, Day 1, 20 mg kg-1/day): 7,691 ng/g
Tmax ([2]; Lung, Day 1, 20 mg kg-1/day): 0 h
Cmax ([2]; Lung, Day 1, 40 mg kg-1/day): 16,162 ng/g
Tmax ([2]; Lung, Day 1, 40 mg kg-1/day): 0 h
Cmax ([2]; Lung, Day 7, 5 mg kg-1/day): 4,228 ng/g
Tmax ([2]; Lung, Day 7, 5 mg kg-1/day): 0 h
Cmax ([2]; Lung, Day 7, 20 mg kg-1/day): 15,133 ng/g
Tmax ([2]; Lung, Day 7, 20 mg kg-1/day): 0.5 h
Tmax ([2]; Plasma, Day 7, 5 mg kg-1/day): 0.3 h
Tmax ([2]; Plasma, Day 7, 20 mg kg-1/day): 0 h
level at 1 h (in vivo [3]; replicate 1): 5200 ng/mL
level at 1 h (in vivo [3]; replicate 2): 5250 ng/mL
level at 1 h (in vivo [3]; replicate 3): 5230 ng/mL
level at 2 h (in vivo [3]; replicate 1): 4240 ng/mL
level at 2 h (in vivo [3]; replicate 2): 4550 ng/mL
level at 2 h (in vivo [3]; replicate 3): 4140 ng/mL
level at 4 h (in vivo [3]; replicate 1): 1820 ng/mL
level at 4 h (in vivo [3]; replicate 2): 1560 ng/mL
level at 4 h (in vivo [3]; replicate 3): 1370 ng/mL
level at 8 h (in vivo [3]; replicate 1): 570 ng/mL
level at 8 h (in vivo [3]; replicate 2): 472 ng/mL
level at 8 h (in vivo [3]; replicate 3): 682 ng/mL
MTD at 168 h (7-day iv MTD toxicity; in vivo, iv): 10 mg/kg
AUC(0-inf) (7-day iv MTD toxicity; in vivo, iv, 10 mg/kg): 36700 ng·h/mL
Cmax (7-day iv MTD toxicity; in vivo, iv, 10 mg/kg): 8700 ng/mL
Target organ toxicity, kidney (7-day iv MTD toxicity; 20, 25, or 30 mg kg^−1 per day by 2 h i.v. infusion for 7 days, dose-related severity): tubular nephropathy present
AUC(0-t) ([4]; Day 1 ELF): 39800 ng·h/mL
Cmax ([4]; Day 1 ELF): 8200 ng/mL
AUC(0-t) ([4]; Day 7 ELF): 137000 ng·h/mL
Cmax ([4]; Day 7 ELF): 42400 ng/mL
NOAEL in mice, aerosol inhalation ([4]; aerosol inhalation over 7 days): 20 mg kg^−1 per day
NOAEL at 168 h ([4]; mouse, in vivo, inhaled or intranasal): 20 mg/kg
AUC(0-t) ([4]; mouse, plasma, inhaled or intranasal, 20 mg/kg, AUC 0-t, Day 1 Plasma): 2600 ng·h/mL
AUC(0-t) ([4]; mouse, plasma, inhaled or intranasal, 20 mg/kg, AUC 0-t, Day 7 Plasma): 1400 ng·h/mL
Cmax ([4]; mouse, plasma, inhaled or intranasal, 20 mg/kg, Cmax, Day 1 Plasma): 950 ng/mL
Cmax ([4]; mouse, plasma, inhaled or intranasal, 20 mg/kg, Cmax, Day 7 Plasma): 470 ng/mL
AUC(0-inf) [5, 14]: 80300 ng·h/mL
Cmax [5, 14]: 15800 ng/mL
NOAEL in monkeys ([5]; i.v. over 2 h QD or BID): 15 mg kg^−1 per day
